Test results from patent US8603527B2, “Pharmaceutical formulations of a substituted diaminopurine” (Signal Pharmaceuticals, LLC, priority 2010, dated 2013).
Like-named read-outs stand apart in the source and are kept apart here.

Key:
[1] = Toxicokinetics in pregnant female rats; type: in vivo, rat; conditions: for concentration at 2 h / AUC / Cmax / Kp: female, rat; for concentration at 2 h / Kp: oral; for concentration at 2 h / Kp / Fetus concentration (pooled fetal blood samples): rats; for concentration at 2 h / Fetus concentration (pooled fetal blood samples): 2 hours after dosing on Gestation Day 17; for AUC / Cmax: pregnant rats; for Kp: fetal plasma / maternal plasma, Gestation Day 17, calculated from individual ratios, read-out: Fetal:Maternal Plasma Ratio
Procedure: Compound I was readily absorbed in pregnant rats following daily oral administration of Compound I for 11 days (GD 6-16). Exposures for Compound I increased in an approximately dose-proportional manner from 25 to 100 mg/kg/day.

Aqueous solubility = type: physicochemical; conditions: aqueous medium
healthy subjects = experiment: Safety in the gender, age and food study in healthy subjects; type: in vivo, human; conditions: 100 mg single oral dose, all age groups, each gender, fasting and fed
Procedure: Group 1 (Healthy Females) and Group 3 (Elderly Males and Females): Subjects were screened within 21 days of dosing and eligible subjects were admitted to the study center on Day −1 (i.e., at least 12 hours predose) for baseline assessments and confirmation of eligibility. A single oral dose of 100 mg Compound I was administered on Day 1 following an overnight fast of at least 8 hours. Subjects were discharged from the study center the morning of Day 3 upon completion of study procedures and returned to the study center for PK blood draws and safety assessments on Days 4, 5, and 6. The end-of-study (EOS) evaluation also occurred on Day 6. Subjects returned to the study center for a follow-up visit between 7 and 10 days from EOS. Serial blood samples were collected predose and up to 120 hours postdose for the determination of plasma Compound I concentrations. Safety was monitored throughout the study; safety evaluations included AE reporting, physical examinations, vital sign measurements, ECGs, and clinical laboratory safety tests. All AEs and concomitant medications were assessed and recorded throughout the study from the time the ICF was signed through follow-up.
Group 2 (Healthy Males): Subjects in Group 2 participated in this portion of the study to evaluate food effect using a randomized, open-label, single dose, 2-period (Period 1 and Period 2), 2-sequence, 2-way crossover design. […]

[2] = CD [Crl:CD(SD)], plasma, 25 mg/kg/day, 25 mg/kg/d oral, Gestation Day 16
[3] = CD [Crl:CD(SD)], plasma, 50 mg/kg/day, 50 mg/kg/d oral, Gestation Day 16
[4] = CD [Crl:CD(SD)], plasma, 100 mg/kg/day, 100 mg/kg/d oral, Gestation Day 16
[5] = Crl:CD(SD), plasma, 25 mg/kg/day, 25 mg/kg/d oral, Gestation Day 6
[6] = Crl:CD(SD), plasma, 50 mg/kg/day, 50 mg/kg/d oral, Gestation Day 6
[7] = Crl:CD(SD), plasma, 100 mg/kg/day, 100 mg/kg/d oral, Gestation Day 6

Work on `O[C@H]1CC[C@H](Nc2ncc3nc(Nc4c(F)cc(F)cc4F)n([C@H]4CCOC4)c3n2)CC1` [Compound I, 4-((9-((3S)-tetrahydro-3-furanyl)-8-((2,4,6-trifluorophenyl)amino)-9H-purin-2-yl)amino)-trans-cyclohexanol] yielded a concentration at 2 h ([1]; CD [Crl:CD(SD)], fetal blood (pooled), 25 mg/kg/day, 25 mg/kg/d, read-out: Fetus concentration (pooled fetal blood samples)) of 897 ng/mL, an AUC [1, 2] of 19700 ng·h/mL and a Cmax [1, 2] of 1930 ng/mL. It also gave an AUC [1, 3] of 42300 ng·h/mL, a Cmax [1, 3] of 4210 ng/mL and an AUC [1, 4] of 96900 ng·h/mL. For the same molecule, the Cmax [1, 4] was 8130 ng/mL, the concentration at 2 h ([1]; CD [Crl:CD(SD)], plasma, 25 mg/kg/day, 25 mg/kg/d, read-out: Dam plasma concentration) was 1520 ng/mL and the concentration at 2 h ([1]; CD [Crl:CD(SD)], plasma, 50 mg/kg/day, 50 mg/kg/d, read-out: Dam plasma concentration) was 3410 ng/mL. For the same molecule, the concentration at 2 h ([1]; CD [Crl:CD(SD)], plasma, 100 mg/kg/day, 100 mg/kg/d, read-out: Dam plasma concentration) was 6650 ng/mL, the Kp ([1]; Crl:CD(SD), 25 mg/kg/day, 25 mg/kg/d) was 0.59 and the Kp ([1]; Crl:CD(SD), 50 mg/kg/day, 50 mg/kg/d) was 0.61. For the same molecule, the Kp ([1]; Crl:CD(SD), 100 mg/kg/day, 100 mg/kg/d) was 0.61, the AUC [1, 5] was 19500 ng·h/mL and the Cmax [1, 5] was 2420 ng/mL. It also gave an AUC [1, 6] of 49500 ng·h/mL, a Cmax [1, 6] of 3920 ng/mL and an AUC [1, 7] of 102000 ng·h/mL. The Cmax [1, 7] was 6790 ng/mL, the “maternal AUC as fold of human AUC” value ([1]; rats at LOEL 25 mg/kg/day vs human 100 mg BID) was ~0.8 fold and the “maternal AUC as fold of human AUC” value ([1]; rats at LOEL 25 mg/kg/day vs human 200 mg BID) was ~0.4 fold. The “Fetus concentration (pooled fetal blood samples)” value ([1]; 50 mg/kg/d) was 2115 ng/mL, the “Fetus concentration (pooled fetal blood samples)” value ([1]; 100 mg/kg/d) was 4012 ng/mL and the solubility (Aqueous solubility) was < 1000 µg/mL. The tolerability (healthy subjects) was “well tolerated”.
